target: T1, recombinant human GST-Syk (Homo sapiens, UniProt P43405); assay: Homogeneous Time-Resolved Fluorescence (HTRF) assay for the recombinant human Syk enzyme; format: biochemical; conditions: recombinant human GST-Syk 5 pM, ATP 25 μM, 10-dose titration 10 μM to 0.508 nM; read-out: rhSYK Activity IC50
T1 construct: purchased Carna Biosciences 08-176
Method in brief: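 Detection used time-resolved fluorescence 30 min after adding a quench mix (40 mM EDTA, 15 mM Tris pH 7.5, 0.01% Tween 20) containing 2 nM Europium anti-pTyr antibody and 70 nM streptavidin-APC. This followed 45 min of room-temperature peptide phosphorylation by recombinant GST-tagged human Syk.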

SMILES	IC50
Cc1cc(Nc2cc(C(F)(F)F)ccn2)nc(-c2cn(C3CCCCC(O)C3O)nn2)c1 (single isomer, unassigned) [Example 10.4, 3-[4-(4-methyl-6-{[4-(trifluoromethyl)pyridin-2-yl]amino}pyridin-2-yl)-1H-1,2,3-triazol-1-yl]cycloheptane-1,2-diol]	3.3 nM
Cc1cc(Nc2ncc(F)c(C(F)F)n2)cc(-c2cn(Cc3ccc(O)nc3)nn2)c1 [Example 32, 5-((4-(3-((4-(difluoromethyl)-5-fluoropyrimidin-2-yl)amino)-5-methylphenyl)-1H-1,2,3-triazol-1-yl)methyl)pyridin-2-ol]	6.8 nM
Cc1cc(Nc2cc(C(F)(F)F)ccn2)nc(-c2cn(C(C)C(O)CC#N)nn2)c1 (stereo not shown) [Example 4.3, 3-hydroxy-4-[4-(4-methyl-6-{[4-(trifluoromethyl)pyridin-2-yl]amino}pyridin-2-yl)-1H-1,2,3-triazol-1-yl]pentanenitrile]	4.6 nM
Cc1cc(Nc2cc(C(F)F)ccn2)nc(-c2cn(C(C)C(C)(O)CO)nn2)c1 (single isomer, unassigned) [Example 30.6, 3-[4-(6-{[4-(difluoromethyl)pyridin-2-yl]amino}-4-methylpyridin-2-yl)-1H-1,2,3-triazol-1-yl]-2-methylbutane-1,2-diol]	6.5 nM
Cc1cc(Nc2nccc(C(F)(F)F)n2)cc(-c2cn(CC3(O)CCC(C(=O)O)C(C)(C)C3)nn2)c1 (stereo not shown) [Example 3.4, 4-hydroxy-2,2-dimethyl-4-{[4-(3-methyl-5-{[4-(trifluoromethyl)pyrimidin-2-yl]amino}phenyl)-1H-1,2,3-triazol-1-yl]methyl}cyclohexanecarboxylic acid]	81.4 nM
Cc1cc(Nc2cc(C(F)(F)F)ccn2)nc(-c2cn(CC(O)C(=O)O)nn2)c1 (stereo not shown) [Example 14, 2-Hydroxy-3-(4-(4-methyl-6-((4-(trifluoromethyl)pyridin-2-yl)amino)pyridin-2-yl)-1H-1,2,3-triazol-1-yl)propanoic acid]	44.9 nM
Cc1cc(Nc2nccc(C(F)(F)F)n2)cc(-n2cc([C@]3(O)CC[C@H](C(=O)OC(C)(C)C)CC3)nn2)c1 [Example 15.5, tert-butyl trans-4-hydroxy-4-[1-(3-methyl-5-{[4-(trifluoromethyl)pyrimidin-2-yl]amino}phenyl)-1H-1,2,3-triazol-4-yl]cyclohexanecarboxylate]	2390 nM
Cc1cc(Nc2cc(C(F)(F)F)ccn2)nc(-c2cn(C3CCNC(=O)CC3)nn2)c1 (racemic) [Example 11.3, 5-[4-(4-methyl-6-{[4-(trifluoromethyl)pyridin-2-yl]amino}pyridin-2-yl)-1H-1,2,3-triazol-1-yl]azepan-2-one]	118 nM
Cc1cc(Nc2cc(C(F)(F)F)ccn2)nc(-c2cn(C[C@H](C)CO)nn2)c1 [Example 5.82, (2S)-2-methyl-3-[4-(4-methyl-6-{[4-(trifluoromethyl)pyridin-2-yl]amino}pyridin-2-yl)-1H-1,2,3-triazol-1-yl]propan-1-ol]	7.9 nM
Cc1cc(Nc2nccc(C(F)(F)F)n2)cc(-n2cc(CC(C)(C)C(=O)O)nn2)c1 [Example 15.13, 2,2-dimethyl-3-[1-(3-methyl-5-{[4-(trifluoromethyl)pyrimidin-2-yl]amino}phenyl)-1H-1,2,3-triazol-4-yl]propanoic acid]	88 nM
COC(=O)[C@@H](C)Cn1cc(-c2cc(C)cc(Nc3cc(C(F)(F)F)ccn3)n2)nn1 [Example 5.86, methyl (2S)-2-methyl-3-[4-(4-methyl-6-{[4-(trifluoromethyl)pyridin-2-yl]amino}pyridin-2-yl)-1H-1,2,3-triazol-1-yl]propanoate]	66.4 nM
Cc1cc(Nc2nccc(C)n2)cc(-c2cn(C3CCCCC3(C)O)nn2)c1 (single isomer, unassigned) [Example 7.28, 1-methyl-2-(4-{3-methyl-5-[(4-methylpyrimidin-2-yl)amino]phenyl}-1H-1,2,3-triazol-1-yl)cyclohexanol]	77.6 nM
COCC(C)(C)NC(=O)Cn1cc(-c2cc(C)cc(Nc3nccc(C(F)(F)F)n3)c2)nn1 [Example 5.67, N-(2-methoxy-1,1-dimethylethyl)-2-[4-(3-methyl-5-{[4-(trifluoromethyl)pyrimidin-2-yl]amino}phenyl)-1H-1,2,3-triazol-1-yl]acetamide]	296 nM
Cc1cc(Nc2cc(C(F)(F)F)ccn2)nc(-c2cn(CC3(O)CCCCC3O)nn2)c1 (stereo not shown) [Example 10.10, 1-{[4-(4-methyl-6-{[4-(trifluoromethyl)pyridin-2-yl]amino}pyridin-2-yl)-1H-1,2,3-triazol-1-yl]methyl}cyclohexane-1,2-diol]	19.6 nM
Cc1cc(Nc2ncc(F)c(C(F)F)n2)cc(-c2cn(CC(C)(O)C(C)(C)O)nn2)c1 (stereo not shown) [Example 21.15, 1-[4-(3-{[4-(difluoromethyl)-5-fluoropyrimidin-2-yl]amino}-5-methylphenyl)-1H-1,2,3-triazol-1-yl]-2,3-dimethylbutane-2,3-diol]	47.5 nM
Cc1cc(Nc2cc(C(F)(F)F)ccn2)nc(-c2cn(C(C)CO)nn2)c1 (stereo not shown) [Example 18.1, 2-[4-(4-Methyl-6-{[4-(trifluoromethyl)pyridin-2-yl]amino}pyridin-2-yl)-1H-1,2,3-triazol-1-yl]propan-1-ol]	2.2 nM

SMILES	IC50
CCOC(=O)/C=C/Cn1cc(-c2cc(C)cc(Nc3cc(C(F)(F)F)ccn3)n2)nn1 [Example 5.34, ethyl (2E)-4-[4-(4-methyl-6-{[4-(trifluoromethyl)pyridin-2-yl]amino}pyridin-2-yl)-1H-1,2,3-triazol-1-yl]but-2-enoate]	171 nM
Cc1cc(Nc2cc(C(F)(F)F)ccn2)nc(-c2cn(CCc3cn[nH]c3)nn2)c1 [Example 5.105, 4-methyl-6-{1-[2-(1H-pyrazol-4-yl)ethyl]-1H-1,2,3-triazol-4-yl}-N-[4-(trifluoromethyl)pyridin-2-yl]pyridin-2-amine]	2.1 nM
Cc1cc(Nc2nccc(C(F)(F)F)n2)cc(-n2cc(C3(O)CCC(C(=O)O)C(C)(C)C3)nn2)c1 (stereo not shown) [Example 15.2]	14.5 nM
Cc1cc(Nc2cc(C(F)(F)F)ccn2)nc(-c2cn(C3CCCCC(O)C3O)nn2)c1 (single isomer, unassigned) [Example 10.6, 3-[4-(4-methyl-6-{[4-(trifluoromethyl)pyridin-2-yl]amino}pyridin-2-yl)-1H-1,2,3-triazol-1-yl]cycloheptane-1,2-diol]	4.7 nM
Cc1cc(Nc2cc(C(F)(F)F)ccn2)nc(-c2cn(CC(O)COCC(F)(F)F)nn2)c1 (stereo not shown) [Example 4.32, 1-[4-(4 methyl-6-{[4-(trifluoromethyl)pyridin-2-yl]amino}pyridin-2-yl)-1H-1,2,3-triazol-1-yl]-3-(2,2,2-trifluoroethoxy)propan-2-ol]	4.8 nM
Cc1cc(Nc2nccc(C(F)(F)F)n2)cc(-c2cn(Cc3ccc(CC(=O)O)cc3)nn2)c1 [Example 5.2, (4-{[4-(3-methyl-5-{[4-(trifluoromethyl)pyrimidin-2-yl]amino}phenyl)-1H-1,2,3-triazol-1-yl]methyl}phenyl)acetic acid]	4.4 nM
Cc1cc(Nc2cc(C(F)(F)F)ccn2)nc(-c2cn(C[C@H](O)CC(N)=O)nn2)c1 [Example 12.1]	14.8 nM
COCc1cc(Nc2nccc(C(F)(F)F)n2)cc(-c2cn(C[C@H](O)CO)nn2)c1 [Example 5.23, (2S)-3-{4-[3-(methoxymethyl)-5-{[4-(trifluoromethyl)pyrimidin-2-yl]amino}phenyl]-1H-1,2,3-triazol-1-yl}propane-1,2-diol]	64.7 nM
Cc1cc(Nc2cc(C(F)(F)F)ccn2)nc(-c2cn(C3CCC(C(=O)O)C(C)(C)C3)nn2)c1 (single isomer, unassigned) [Example 3.7, (R or S) 2,2-dimethyl-4-[4-(4-methyl-6-{[4-(trifluoromethyl)pyridin-2-yl]amino}pyridin-2-yl)-1H-1,2,3-triazol-1-yl]cyclohexanecarboxylic acid]	3.7 nM
Cc1cc(Nc2cc(C(F)(F)F)ccn2)nc(-c2cn(C(CO)c3ccccc3)nn2)c1 (stereo not shown) [Example 13.8, 2-[4-(4-methyl-6-{[4-(trifluoromethyl)pyridin-2-yl]amino}pyridin-2-yl)-1H-1,2,3-triazol-1-yl]-2-phenylethanol]	7.1 nM
Cc1cc(Nc2cc(C(F)(F)F)ccn2)nc(-c2cn(CC(=O)O)nn2)c1 [Example 5.88, [4-(4-methyl-6-{[4-(trifluoromethyl)pyridin-2-yl]amino}pyridin-2-yl)-1H-1,2,3-triazol-1-yl]acetic acid]	52.9 nM
Cc1cc(Nc2cc(C(F)(F)F)ccn2)nc(-c2cn(C(C)C(=O)NCCc3cccc(Oc4ccccc4)c3)nn2)c1 (stereo not shown) [Example 1.36, 2-[4-(4-methyl-6-{[4-(trifluoromethyl)pyridin-2-yl]amino}pyridin-2-yl)-1H-1,2,3-triazol-1-yl]-N-[2-(3-phenoxyphenyl)ethyl]propanamide]	1460 nM
Cc1cc(Nc2cc(C(F)(F)F)ccn2)nc(-c2cn(C(C)C(=O)NCC(c3ccc(C(F)(F)F)cc3)N3CCOCC3)nn2)c1 (stereo not shown) [Example 1.52, 2-[4-(4-methyl-6-{[4-(trifluoromethyl)pyridin-2-yl]amino}pyridin-2-yl)-1H-1,2,3-triazol-1-yl]-N-{2-morpholin-4-yl-2-[4-(trifluoromethyl)phenyl]ethyl}propanamide]	435 nM
Cc1cc(Nc2cc(C(F)(F)F)ccn2)nc(-c2cn([C@@H](C)C(=O)N3CCC[C@H]3C(N)=O)nn2)c1 [Example 1.20, 1-{(2S)-2-[4-(4-methyl-6-{[4-(trifluoromethyl)pyridin-2-yl]amino}pyridin-2-yl)-1H-1,2,3-triazol-1-yl]propanoyl}prolinamide]	87.2 nM
Cc1cc(Nc2nccc(C(F)(F)F)n2)cc(-c2cn(C3COCC3O)nn2)c1 (single isomer, unassigned) [Example 4.4, 4-[4-(3-methyl-5-{[4-(trifluoromethyl)pyrimidin-2-yl]amino}phenyl)-1H-1,2,3-triazol-1-yl]tetrahydrofuran-3-ol]	26.1 nM
